Data as given in the supplement of paper PMC10307832.

Key:
Assay in all cases: relative viability (nuclei count vs DMSO), 5 days (fraction); higher = more cells survive
VX-702 + Alpelisib = compound: NC(=O)c1ccc(N(C(N)=O)c2c(F)cccc2F)nc1-c1ccc(F)cc1F [VX-702] + Cc1nc(NC(=O)N2CCC[C@H]2C(N)=O)sc1-c1ccnc(C(C)(C)C(F)(F)F)c1 [Alpelisib] (partner 2 µM)
How it was run: (§1)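 Lung cancer cell lines in 1536-well plates got either a single drug or a fixed anchor-drug dose together with five library-drug doses (not always all listed) in √10 steps, by pin tool, on the day after seeding. Nuclei were counted after 5 days, and relative viability is the treated-to-vehicle ratio of nuclei counts. Values are medians of duplicate plates.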

Dabrafenib + AZD7762 = compound: CC(C)(C)c1nc(-c2cccc(NS(=O)(=O)c3c(F)cccc3F)c2F)c(-c2ccnc(N)n2)s1 [Dabrafenib] + NC(=O)Nc1cc(-c2cccc(F)c2)sc1C(=O)N[C@H]1CCCNC1 [AZD7762] (partner 0.2 µM)
How it was run: as §1

Dabrafenib + OSI-027 = compound: CC(C)(C)c1nc(-c2cccc(NS(=O)(=O)c3c(F)cccc3F)c2F)c(-c2ccnc(N)n2)s1 [Dabrafenib] + COc1cccc2cc(-c3nc([C@H]4CC[C@H](C(=O)O)CC4)n4ncnc(N)c34)[nH]c12 [OSI-027] (partner 0.5 µM)
How it was run: as §1

Dabrafenib + Tozasertib = compound: CC(C)(C)c1nc(-c2cccc(NS(=O)(=O)c3c(F)cccc3F)c2F)c(-c2ccnc(N)n2)s1 [Dabrafenib] + Cc1cc(Nc2cc(N3CCN(C)CC3)nc(Sc3ccc(NC(=O)C4CC4)cc3)n2)n[nH]1 [Tozasertib] (partner 0.1 µM)
How it was run: as §1

| Cell Line | relative viability (VX-702 + Alpelisib; first compound 0.02 µM) | relative viability (VX-702 + Alpelisib; first compound 0.2 µM) | relative viability (VX-702 + Alpelisib; first compound 0.6325 µM) | relative viability (VX-702 + Alpelisib; first compound 2 µM) | relative viability (Dabrafenib + AZD7762; first compound 0.003 µM) | relative viability (Dabrafenib + AZD7762; first compound 0.009487 µM) | relative viability (Dabrafenib + AZD7762; first compound 0.03 µM) | relative viability (Dabrafenib + AZD7762; first compound 0.3 µM) | relative viability (Dabrafenib + OSI-027; first compound 0.003 µM) | relative viability (Dabrafenib + OSI-027; first compound 0.009487 µM) | relative viability (Dabrafenib + OSI-027; first compound 0.03 µM) | relative viability (Dabrafenib + OSI-027; first compound 0.3 µM) | relative viability (Dabrafenib + Tozasertib; first compound 0.003 µM) | relative viability (Dabrafenib + Tozasertib; first compound 0.009487 µM) | relative viability (Dabrafenib + Tozasertib; first compound 0.03 µM) | relative viability (Dabrafenib + Tozasertib; first compound 0.3 µM) | relative viability (Dabrafenib + AZD7762; first compound 0.09487 µM) | relative viability (Dabrafenib + OSI-027; first compound 0.09487 µM) | relative viability (Dabrafenib + Tozasertib; first compound 0.09487 µM) |
| --- | --- | --- | --- | --- | --- | --- | --- | --- | --- | --- | --- | --- | --- | --- | --- | --- | --- | --- | --- |
| HCC-827 | 0.982 | 1.04 | 0.884 | 0.684 | 0.129 | 0.234 | 0.216 | 0.276 | 0.586 | 0.955 | 0.744 | 0.657 | 0.426 | 0.457 | 0.383 | 0.377 | – | – | – |
| HOP-62 | 1.12 | 1.17 | 1.06 | 1.19 | 0.088 | 0.449 | 0.493 | 0.452 | 0.354 | 0.841 | 0.778 | 0.557 | 0.422 | 0.39 | 0.331 | 0.399 | 0.424 | 0.631 | 0.362 |
| LC-2-ad | 0.943 | 0.885 | 0.868 | 1.02 | 0.654 | 0.945 | 0.87 | 1.07 | – | 1.14 | 0.83 | 0.859 | – | 0.453 | 0.422 | 0.429 | 0.92 | 0.76 | 0.447 |
| LCLC-97TM1 | 0.187 | 0.238 | 0.205 | 0.227 | – | 0.239 | 0.25 | 0.224 | 0.308 | 0.535 | 0.683 | 0.237 | 0.218 | 0.209 | 0.287 | 0.186 | 0.129 | 0.237 | 0.249 |
| LCLC-103H | 0.964 | 0.949 | 0.977 | 0.9 | 0.703 | 0.834 | 0.701 | 0.761 | 0.4 | 0.502 | 0.46 | 0.461 | 0.401 | 0.514 | 0.424 | 0.5 | 0.794 | 0.51 | 0.44 |
| LK-2 | 0.611 | – | 0.635 | 1.18 | 0.125 | 0.449 | – | 0.467 | 0.174 | 0.238 | 0.155 | 0.206 | 0.182 | 0.174 | – | 0.152 | 0.433 | 0.248 | 0.174 |
| LOU-NH91 | 0.699 | 0.683 | 0.702 | 0.562 | – | 0.768 | 0.734 | 0.827 | 0.488 | 0.801 | 0.666 | 0.75 | 0.704 | 0.78 | 0.679 | 0.761 | 0.725 | 0.7 | 0.698 |
| LU99A | 0.52 | 0.485 | 0.48 | 0.467 | 0.55 | 0.401 | 0.368 | 0.261 | 0.282 | 0.307 | 0.29 | 0.268 | 0.258 | 0.287 | 0.255 | 0.306 | 0.352 | 0.339 | 0.277 |
| LXF-289 | 1.07 | 1.03 | 1.01 | 1.05 | 0.162 | 1.13 | 1.22 | 1.29 | 0.337 | 0.819 | 0.751 | 0.856 | 0.192 | 0.178 | 0.116 | 0.187 | 1.06 | 0.783 | 0.203 |
| NCI-H23 | 0.659 | 0.65 | 0.683 | 0.998 | – | 0.207 | 0.205 | 0.217 | – | 0.602 | 0.471 | 0.486 | – | 0.431 | 0.344 | 0.375 | 0.254 | 0.435 | 0.337 |
| NCI-H322M | 0.873 | 0.695 | 0.779 | 0.894 | – | 0.613 | – | 0.612 | – | 0.545 | 0.503 | 0.448 | – | 0.49 | 0.373 | 0.436 | 0.619 | 0.515 | 0.446 |
| NCI-H358 | 0.804 | 0.778 | 0.777 | 0.973 | – | 0.866 | 0.6 | 0.775 | 0.486 | 0.923 | 0.74 | 0.655 | 0.102 | 0.0949 | 0.0962 | 0.0813 | 0.637 | 0.576 | 0.106 |
| NCI-H441 | 0.847 | 0.537 | 0.727 | 0.759 | – | 1.22 | 1.02 | 1.34 | – | 0.465 | 0.565 | 0.352 | – | 0.555 | 0.632 | 0.495 | 1.03 | 0.438 | 0.571 |
| NCI-H460 | 0.465 | 0.46 | 0.448 | 0.487 | 0.282 | 0.616 | 0.546 | 0.493 | 0.641 | 0.651 | 0.629 | 0.534 | 0.0459 | 0.482 | 0.436 | 0.375 | 0.556 | 0.591 | 0.374 |
| NCI-H596 | 0.437 | 0.436 | 0.509 | 0.426 | – | 1.2 | 0.958 | 1.16 | – | 0.976 | 0.63 | 0.886 | – | 0.781 | 0.826 | 0.977 | 1.14 | 0.658 | 0.821 |
| NCI-H647 | 1.29 | 1 | 1.08 | 1.14 | – | 0.437 | – | 0.43 | 0.325 | 0.704 | 0.561 | 0.476 | 0.388 | 0.292 | 0.27 | 0.434 | 0.32 | 0.582 | 0.298 |
| NCI-H650 | 1.11 | – | 1.15 | 1.34 | – | 1.08 | 0.82 | 0.724 | – | 0.578 | 0.427 | 0.301 | – | 0.667 | 0.738 | 0.38 | 0.663 | 0.331 | 0.502 |
